Patent publication US8877754B2, “Compounds, pharmaceutical compositions and uses thereof” (Boehringer Ingelheim International GmbH, priority 2010, dated 2014)

biological target: T1, human ACC2 (Homo sapiens, UniProt O00763); assay: ACC2 assay, spectrophotometric 384 well assay (NADH-linked, coupled lactate dehydrogenase/pyruvate kinase); type: biochemical; conditions: hACC2 construct lacking the 128 N-terminal amino acids; 25° C., 340 nm, 15 minutes
T1 construct: made in house; host or cells: insect cells, baculoviral expression system
Description: Spectrophotometric 384 Well Assay
Malonyl CoA formation by acetyl CoA carboxylases is stoichometrically linked to the consumption of ATP. ACC2 activity is measured in a NADH-linked kinetic method measuring ADP generated during the ACC reaction using a coupled lactate dehydrogenase/pyruvate kinase reaction.
For biological testing, a human ACC2 construct which lacks the 128 amino acids at the N-terminus for increased solubility (nt 385-6966 in Genbank entry AJ575592) is cloned. The protein is then expressed in insect cells using a baculoviral expression system. Protein purification is performed by anion exchange.
All compounds are dissolved in dimethyl sulfoxide (DMSO) to a concentration of 10 mM.
Assay reactions are then carried out in 384-well plates, with hACC2 in an appropriate dilution and at final assay concentrations (f.c.) of 100 mM Tris (pH 7.5), 10 mM trisodium citrate, 25 mM KHCO3, 10 mM MgCl2, 0.5 mg/mL BSA, 3.75 mM reduced L-glutathione, 15 U/mL lactate dehydrogenase, 0.5 mM phosphoenolpyruvate, 15 U/mL pyruvate kinase, compounds at different concentrations at final DMSO concentrations of 1%.
The enzymatic reaction is then started by addition of a mixture of NADH, acetyl Coenzyme A (both 200 μM f.c.) and ATP (500 uM f.c.). The decrease of the optical density (slope S) is then determined at 25° C. at a wavelength of 340 nm over 15 minutes in a spectrophotometric reader.
Each assay microtiter plate contains wells with vehicle instead of compound as controls for the non-inhibited enzyme (100% CTL; ‘HIGH’) and wells without acetyl-CoA as controls for non-specific NADH degradation (0% CTL; ‘LOW’). The slope S is used for calculation of % CTL=(S(compound)−S(‘LOW’))/(S(‘HIGH’)—S(‘LOW’))*100. Compounds will give values between 100% CTL (no inhibition) and 0% CTL (complete inhibition).
For IC50 value determination, the sample slope in the presence of the test compound after subtraction of the low controls (S(compound)−S(‘LOW’)) are used.
An IC50 value is derived from the compound slopes at different dosages after subtraction of the low controls (S(compound)−S(‘LOW’)) by non-linear regression curve fitting (equation y=(A+((B−A)/(1+((C/x)^D))))).

T1 sequence (O00763 129-2458 limits assumed): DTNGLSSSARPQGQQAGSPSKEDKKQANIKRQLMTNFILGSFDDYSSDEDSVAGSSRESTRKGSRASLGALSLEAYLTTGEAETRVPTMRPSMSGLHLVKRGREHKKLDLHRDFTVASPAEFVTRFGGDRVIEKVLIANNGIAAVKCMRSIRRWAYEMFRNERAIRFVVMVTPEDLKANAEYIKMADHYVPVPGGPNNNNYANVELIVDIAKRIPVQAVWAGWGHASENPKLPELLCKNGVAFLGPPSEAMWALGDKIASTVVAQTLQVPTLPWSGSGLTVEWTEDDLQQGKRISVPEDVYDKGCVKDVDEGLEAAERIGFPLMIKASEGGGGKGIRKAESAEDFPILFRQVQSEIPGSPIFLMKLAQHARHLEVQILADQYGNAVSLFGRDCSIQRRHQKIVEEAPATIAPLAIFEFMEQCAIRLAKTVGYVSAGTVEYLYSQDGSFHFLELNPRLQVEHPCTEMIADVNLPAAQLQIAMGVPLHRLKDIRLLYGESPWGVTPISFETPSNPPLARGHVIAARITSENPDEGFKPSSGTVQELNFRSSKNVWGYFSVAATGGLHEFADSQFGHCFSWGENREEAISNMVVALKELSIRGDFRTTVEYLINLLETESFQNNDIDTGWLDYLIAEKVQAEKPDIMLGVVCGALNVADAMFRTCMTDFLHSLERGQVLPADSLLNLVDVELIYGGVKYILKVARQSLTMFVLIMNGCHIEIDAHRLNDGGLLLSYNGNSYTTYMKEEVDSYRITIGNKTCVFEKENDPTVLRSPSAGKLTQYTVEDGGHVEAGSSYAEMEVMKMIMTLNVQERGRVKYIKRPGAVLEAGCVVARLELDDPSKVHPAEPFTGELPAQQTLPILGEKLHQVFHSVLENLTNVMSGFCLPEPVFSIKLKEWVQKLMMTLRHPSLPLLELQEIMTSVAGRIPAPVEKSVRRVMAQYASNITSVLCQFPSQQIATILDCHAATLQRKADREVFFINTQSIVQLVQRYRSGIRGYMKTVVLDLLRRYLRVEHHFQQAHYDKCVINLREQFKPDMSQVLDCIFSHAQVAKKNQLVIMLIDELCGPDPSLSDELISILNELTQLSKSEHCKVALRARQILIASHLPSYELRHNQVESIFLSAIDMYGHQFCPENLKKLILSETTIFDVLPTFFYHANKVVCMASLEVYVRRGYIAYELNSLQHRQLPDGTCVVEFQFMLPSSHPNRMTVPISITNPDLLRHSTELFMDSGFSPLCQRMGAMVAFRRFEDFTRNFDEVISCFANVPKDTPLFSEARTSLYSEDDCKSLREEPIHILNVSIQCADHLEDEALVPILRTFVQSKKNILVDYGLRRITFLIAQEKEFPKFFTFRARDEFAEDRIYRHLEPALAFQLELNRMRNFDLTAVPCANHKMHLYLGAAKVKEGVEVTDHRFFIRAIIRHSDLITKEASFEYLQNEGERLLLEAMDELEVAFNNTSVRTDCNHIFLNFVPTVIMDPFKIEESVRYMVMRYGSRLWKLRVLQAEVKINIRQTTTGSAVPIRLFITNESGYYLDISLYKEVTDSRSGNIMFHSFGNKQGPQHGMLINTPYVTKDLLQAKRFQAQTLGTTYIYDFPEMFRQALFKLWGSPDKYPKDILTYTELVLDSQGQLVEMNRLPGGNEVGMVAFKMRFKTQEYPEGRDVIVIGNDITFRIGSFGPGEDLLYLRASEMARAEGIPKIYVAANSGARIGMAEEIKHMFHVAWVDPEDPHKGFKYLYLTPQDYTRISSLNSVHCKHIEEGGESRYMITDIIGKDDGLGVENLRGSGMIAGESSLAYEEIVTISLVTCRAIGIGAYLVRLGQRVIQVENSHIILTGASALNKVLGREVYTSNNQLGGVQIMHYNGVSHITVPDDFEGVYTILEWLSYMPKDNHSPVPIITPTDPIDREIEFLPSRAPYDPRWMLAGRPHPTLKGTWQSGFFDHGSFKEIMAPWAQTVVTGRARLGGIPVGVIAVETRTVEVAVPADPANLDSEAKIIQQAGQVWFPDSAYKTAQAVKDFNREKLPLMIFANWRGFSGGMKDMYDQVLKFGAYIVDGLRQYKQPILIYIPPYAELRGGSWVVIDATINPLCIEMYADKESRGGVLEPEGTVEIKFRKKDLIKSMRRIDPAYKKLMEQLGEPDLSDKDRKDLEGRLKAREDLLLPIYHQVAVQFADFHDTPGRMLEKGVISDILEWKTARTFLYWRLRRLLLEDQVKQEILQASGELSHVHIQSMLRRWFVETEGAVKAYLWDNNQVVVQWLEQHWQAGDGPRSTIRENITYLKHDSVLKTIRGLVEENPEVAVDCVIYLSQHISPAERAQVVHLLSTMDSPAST

Row | IC50 | SMILES
1 | 560 nM | CCNC(=O)C(C)c1ccc(C#Cc2ccc(OCC)nc2)cc1 (centres unmarked) [Example 7.23]
2 | 25500 nM | CCNC(=O)C(C)c1ccc(C#Cc2ccc(CNC(C)=O)cc2)cc1 (centres unmarked) [Example 7.26]
3 | 4400 nM | CCNC(=O)C(C)c1ccc(C#Cc2cnc(OC)nc2OC)cc1 (centres unmarked) [Example 7.5]
4 | 10900 nM | CCNC(=O)C(C)c1ccc(C#Cc2ccc(COC)cc2)cc1 (centres unmarked) [Example 7.27]
5 | 250 nM | CCNC(=O)C(C)c1ccc(C#Cc2ccnc(OC(C)C)c2)cc1 (centres unmarked) [Example 7.44]
6 | 5000 nM | CCNC(=O)C(C)c1ccc(C#Cc2cncc(OC)c2)cc1 (centres unmarked) [Example 7.14]
7 | 400 nM | CCOc1ccc(C#Cc2ccc(C(C)C(=O)Nc3ccncc3)cc2)cc1 (centres unmarked) [Example 6.13]
8 | 1100 nM | CCNC(=O)C(C)c1ccc(C#Cc2ccn(CC(C)C)c(=O)c2)cc1 (centres unmarked) [Example 7.34]
9 | 110 nM | CCNC(=O)C(C)c1ccc(C#Cc2ccc(OC3CCCC3)cc2)cc1 (centres unmarked) [Example 7.46]
10 | 130 nM | CCOc1ccc(C#Cc2ccc(C(C)C(=O)Nc3ccnnc3)cc2)cc1 (centres unmarked) [Example 6.12]
11 | 60 nM | CCOc1ccc(C#Cc2ccc(C(C)C(=O)Nc3cncnc3)cc2)cc1 (centres unmarked) [Example 6.5]
12 | 18700 nM | CCOc1ccc(C#Cc2ccc(C(C)C(=O)NC(C)(C)C#N)cc2)cc1 (centres unmarked) [Example 6.26]
13 | 4300 nM | CCNC(=O)C(C)c1ccc(C#Cc2ccc(OC(F)F)cc2)cc1 (centres unmarked) [Example 7.6]
14 | 18700 nM | CCOc1ccc(C#Cc2ccc(C(C)C(=O)NC3CCOCC3)cc2)cc1 (centres unmarked) [Example 6.17]
15 | 5400 nM | CCNC(=O)C(C)c1ccc(C#Cc2ccc(C3CC3)cn2)cc1 (centres unmarked) [Example 7.33]
16 | 490 nM | CCCOc1ccc(C#Cc2ccc(C(C)C(=O)NCC)cc2)cn1 (centres unmarked) [Example 7.47]
17 | 830 nM | CCOc1ccc(C#Cc2ccc(C(C)C(=O)Nc3nnc(C)o3)cc2)cc1 (centres unmarked) [Example 6.3]
18 | 1800 nM | CCOc1ccc(C#Cc2ccc(C(C)C(=O)NCc3cnco3)cc2)cc1 (centres unmarked) [Example 6.24]
19 | 240 nM | CCOc1ccc(C#Cc2ccc(C(C)C(=O)Nc3cccnc3)cc2)cc1 (centres unmarked) [Example 6.14]
20 | 140 nM | CCCOc1ccc(C#Cc2ccc(C(C)C(=O)NCC)cc2)c(Cl)c1 (centres unmarked) [Example 7.40]

Row | IC50 | SMILES
21 | 110 nM | CCNC(=O)C(C)c1ccc(C#Cc2ccc(OC3CCC3)cc2)cc1 (centres unmarked) [Example 7.3]
22 | 100 nM | CCOc1ccc(C#Cc2ccc(C(C)C(=O)Nc3cc(C)on3)cc2)cc1 (centres unmarked) [Example 6.16]
23 | 250 nM | CCNC(=O)C(C)c1ccc(C#Cc2ccc(OC(C)C)nc2)cc1 (centres unmarked) [Example 7.29]
24 | 8300 nM | CCOc1ccc(C#Cc2ccc(C(C)C(=O)Nc3ccn[nH]3)cc2)cc1 (centres unmarked) [Example 6.20]
25 | 12800 nM | CCOc1ccc(C#Cc2ccc(C(C)C(=O)NCC3CCOC3)cc2)cc1 (centres unmarked) [Example 6.25]
26 | 260 nM | CCNC(=O)C(C)c1ccc(C#Cc2ccc(OC(C)C)cc2)cc1 (centres unmarked) [Example 7.24]
27 | 4000 nM | CCNC(=O)C(C)c1ccc(C#Cc2ccc(N3CCCCC3=O)cc2)cc1 (centres unmarked) [Example 7.15]
28 | 440 nM | CCNC(=O)C(C)c1ccc(C#Cc2cnn(-c3ccccc3)c2)cc1 (centres unmarked) [Example 7.32]
29 | 1500 nM | CCNC(=O)C(C)c1ccc(C#Cc2ccc(CNc3ccccn3)cc2)cc1 (centres unmarked) [Example 7.16]
30 | 3800 nM | CCNC(=O)C(C)c1ccc(C#Cc2ccc(OC(C)C)nn2)cc1 (centres unmarked) [Example 7.36]
31 | 2000 nM | CCNC(=O)C(C)c1ccc(C#Cc2cc(OCC)ncn2)cc1 (centres unmarked) [Example 7.13]
32 | 2900 nM | CCNC(=O)C(C)c1ccc(C#Cc2ccc(OC)nc2)cc1 (centres unmarked) [Example 7.28]
33 | 70 nM | CCCOc1ccc(C#Cc2ccc(C(C)C(=O)NCC)cc2)cc1 (centres unmarked) [Example 7.25]
34 | 220 nM | CCNC(=O)C(C)c1ccc(C#Cc2ccc(OC3CCCC3)nc2)cc1 (centres unmarked) [Example 7.30]
35 | 7700 nM | CCNC(=O)C(C)c1ccc(C#Cc2ccc3[nH]nnc3c2)cc1 (centres unmarked) [Example 7.19]
36 | 2200 nM | CCNC(=O)C(C)c1ccc(C#Cc2ccc3c(c2)C(=O)CC3)cc1 (centres unmarked) [Example 7.18]
37 | 60 nM | CCNC(=O)C(C)c1ccc(C#Cc2ccc(OC3CC3)cc2)cc1 (centres unmarked) [Example 7.49]
38 | 410 nM | CCOc1ccc(C#Cc2ccc(C(C)C(=O)Nc3cccc(OC)n3)cc2)cc1 (centres unmarked) [Example 6.4]
39 | 2500 nM | CCNC(=O)C(C)c1ccc(C#Cc2ccc3cccnc3c2)cc1 (centres unmarked) [Example 7.8]
40 | 380 nM | CCNC(=O)C(C)c1ccc(C#Cc2cccc(OCc3ccccc3)c2)cc1 (centres unmarked) [Example 7.11]

Second part, the compound before the results:

Row | SMILES | IC50
41 | CCNC(=O)C(C)c1ccc(C#Cc2ccc(OC(C)c3ccncc3)cc2)cc1 (centres unmarked) [Example 5.8] | 1500 nM
42 | CCNC(=O)C(C)c1ccc(C#Cc2cnc(NC3CCCC3)nc2)cc1 (centres unmarked) [Example 2.3] | 710 nM
43 | CCNC(=O)C(C)c1ccc(C#Cc2cnc(NC3CCC3)nc2)cc1 (centres unmarked) [Example 2.12] | 690 nM
44 | CCOc1ccc(C#Cc2ccc(CCC(=O)NC)cc2)cc1 [Example 1.1, 3-[4-(4-Ethoxy-phenylethynyl)-phenyl]-N-methyl-propionamide] | 4300 nM
45 | CCNC(=O)C(C)c1ccc(C#Cc2cnc(N(C)C3CC3)nc2)cc1 (centres unmarked) [Example 2.14] | 6800 nM
46 | CCNC(=O)Cc1ccc(C#Cc2ccc(OCC)cc2)cc1 [Example 1.22] | 3600 nM
47 | CCNC(=O)C(C)c1ccc(C#Cc2ccc(OCc3ccco3)cc2)cc1 (centres unmarked) [Example 5.1, N-Ethyl-2-{4-[4-(furan-2-ylmethoxy)-phenylethynyl]-phenyl}-propionamide] | 1500 nM
48 | CCNC(=O)C(C)c1ccc(C#Cc2cnc(OC(C)C)nc2)cc1 (centres unmarked) [Example 3.4] | 460 nM
49 | CCNC(=O)C(C)c1ccc(C#Cc2cnc(NC(C)C)nc2)cc1 (centres unmarked) [Example 2.1, N-Ethyl-2-[4-(2-isopropylamino-pyrimidin-5-ylethynyl)-phenyl]-propionamide] | 690 nM
50 | CCNC(=O)C(C)c1ccc(C#Cc2ccc(OCC(C)F)cc2)cc1 (centres unmarked) [Example 5.19] | 250 nM
51 | CCNC(=O)C(C)c1ccc(C#Cc2ccc(OC3CCOCC3)cc2)cc1 (centres unmarked) [Example 5.2] | 1800 nM
52 | CCCOc1ccc(C#Cc2ccc(C(C)(C)C(=O)NC3CC3)cc2)cc1 [Example 1.14] | 600 nM
53 | CCNC(=O)C(C)c1ccc(C#Cc2ccc(OCCOCC)cc2)cc1 (centres unmarked) [Example 5.4] | 1100 nM
54 | CCNC(=O)C(C)c1ccc(C#Cc2ccc(OC3CCCOC3)cc2)cc1 (centres unmarked) [Example 5.11] | 870 nM
55 | CCOc1ccc(C#Cc2ccc(C(C)C(=O)NCC#N)cc2)cc1 (centres unmarked) [Example 1.11] | 660 nM
56 | CCNC(=O)C(C)c1ccc(C#Cc2cnc(OCCF)nc2)cc1 (centres unmarked) [Example 3.1, N-Ethyl-2-{4-[2-(2-fluoro-ethoxy)-pyrimidin-5-ylethynyl]-phenyl}-propionamide] | 8400 nM
57 | CCNC(=O)C(C)c1ccc(C#Cc2ccc(OCC(C)C)cc2)cc1 (centres unmarked) [Example 5.3] | 240 nM

Row | SMILES | IC50
58 | CCNC(=O)C(C)c1ccc(C#Cc2ccc(OCCC(F)(F)F)cc2)cc1 (centres unmarked) [Example 5.14] | 110 nM
59 | CCCOc1ccc(C#Cc2ccc(C(C)(C)C(=O)NCC)cc2)cc1 [Example 1.8] | 2400 nM
60 | CCOc1ccc(C#Cc2ccc(C(C)C(=O)N(C)C)cc2)cc1 (centres unmarked) [Example 1.4] | 16100 nM
61 | CCNC(=O)C(C)c1ccc(C#Cc2ccc(OCCn3ccnc3)cc2)cc1 (centres unmarked) [Example 5.18] | 1900 nM
62 | CCNC(=O)C(C)c1ccc(C#Cc2ccc(OCC3(C)COC3)cc2)cc1 (centres unmarked) [Example 5.15] | 2700 nM
63 | CCNC(=O)C(C)c1ccc(C#Cc2ccc(OCCn3cccc3)cc2)cc1 (centres unmarked) [Example 5.7] | 170 nM
64 | CCOc1ccc(C#Cc2ccc(CC(C)C(=O)NC)cc2)cc1 (centres unmarked) [Example 1.24] | 2700 nM
65 | CCNC(=O)C(C)c1ccc(C#Cc2ccc(OCCc3cn[nH]c3)cc2)cc1 (centres unmarked) [Example 5.17] | 930 nM
66 | CCNC(=O)C(C)c1ccc(C#Cc2ccc(OC(CC)COC)cc2)cc1 (centres unmarked) [Example 5.16] | 1400 nM
67 | CCNC(=O)C(C)c1ccc(C#Cc2ccc(OCCCOC)cc2)cc1 (centres unmarked) [Example 5.12] | 440 nM
68 | CCNC(=O)C(C)c1ccc(C#Cc2ccc(OCC)cc2)cc1 (centres unmarked) [Example 1.5] | 90 nM
69 | CCNC(=O)C(C)c1ccc(C#Cc2cnc(NCc3ccncc3)nc2)cc1 (centres unmarked) [Example 2.16] | 7400 nM
70 | CCCOc1ccc(C#Cc2ccc(C(C)(C)C(N)=O)cc2)cc1 [Example 1.19] | 29200 nM
71 | CCNC(=O)C(C)c1ccc(C#Cc2cnc(N3CCC4(CC4)C3)nc2)cc1 (centres unmarked) [Example 2.10] | 2300 nM
72 | CCOc1ccc(C#Cc2ccc(C(C)C(=O)NCC(=O)OC)cc2)cc1 (centres unmarked) [Example 1.18] | 1300 nM
73 | CCOc1ccc(C#Cc2ccc(C(C)C(=O)NCC(N)=O)cc2)cc1 (centres unmarked) [Example 1.10] | 530 nM
74 | CCNC(=O)C(C)c1ccc(C#Cc2cnc(NCc3ccccc3)nc2)cc1 (centres unmarked) [Example 2.13] | 240 nM
